Assay [1] concerns neonatal chronic hypoxia model (dorsal SVZ and cortex). Briefly: Neonatal chronic hypoxia model of preterm birth brain injury, intranasal administration. It counts as in vivo, mice. The protocol: Mice aged P1 were placed in a hypoxic rearing chamber maintaining at 9.5-10.5% O2 concentration by displacement with N2. Hypoxia began at the postnatal day 3 (P3) for 8 days until P11. A separate group was maintained in a normal atmosphere (normoxic group). […] Mucus was first permeabilized by the use of type IV hyaluronidase, then 10 μl of drugs (Sigma) was administered 3 times, 1 time a day from P11 to P13 (starting at the end of the hypoxic period, then every 24 hours) in sterile PBS (control). For analysis of proliferation, mice were injected with EdU (Sigma) in order to label cells in an actively cycling state in S-phase, then perfused 1 h later at P13. For analysis of OL maturation, mice were perfused at P19. All perfusions were performed with Ringer, followed by ice cold solution of 4% paraformaldehyde (Thermo Fisher). Mice were sacrificed at P13 or P19 by an intraperitoneal overdose of pentobarbital followed by perfusion with Ringer's lactate solution and 4% paraformaldehyde (PFA; Sigma) dissolved in 0.1M phosphate buffer (PB; pH 7.4). Brains were removed and post-fixed for 24 hours at 4° C. in 4% PFA and sectioned in 50 μm thick coronal serial sections, free floating sections.
For in vivo-cryosections (50 μm) of chronic hypoxia, antigen retrieval was performed for 20 min in a citrate buffer (ph 6.0) at 80° C., then cooled for 20 min at room temperature and washed in 0.1M PB. The following antibody were used for immunohistochemical procedures: Mouse anti-APC (CC1 IgG2B; 1:100, calbiochem); Mouse anti-Olig2 (1:1500; Millipore); Rabbit anti-Olig2 (1:400; Millipore); Rabbit anti-GSTpi (1:1000, Enzo). Blocking was performed in a TNB buffer (0.1 M PB; 0.05% Casein; 0.25% Bovine Serum Albumin; 0.25% TopBlock) with 0.4% triton-X (TNB-Tx). Sections were incubated overnight at 4° C. with gentle shaking. Following extensive washing in 0.1 M PB with 0.4% triton-X (PB-Tx), sections were incubated with appropriate secondary antibodies conjugated with Alexa Fluor 488 or 555 (1:500; Jackson or Invitrogen) for 2 hrs at room temperature. Sections were washed and counterstained with Dapi (1:5000 from a working solution at 5 mg/ml; Life Technologies; D1306). Revelation of EdU was done using Click-it™, EdU cell proliferation Kit for imaging, Alexa fluor™ 647 dye (Thermo Fisher scientific).
Chronic hypoxia is a well-established model of very preterm birth, that induces a diffuse perinatal brain lesion by housing the pups at 10% oxygen from P3 to P11 (FIG. 5A). This neonatal hypoxia induces a marginal cell death including neuronal and glial cells along with delay into forebrain development including OL maturation that appear to persist in adulthood. […] We next assessed the impact on OL differentiation by immunodetection of OLs with CC1 antibody and oligodendroglial cells by Olig2.

Assay [2] relates to focal demyelination in the corpus callosum of adult mice. Nature of the assay: Lysolecithin (LPC) induced focal de/remyelination model in adult mice, oral administration in drinking water. It counts as in vivo. To be noted: 7 dpl, oral daily. On the procedure: We weighted and anesthetized 4 months old RjOrl: SWISS mice (Janvier) with isoflurane (induced at 3%, and maintained at 1.2-1.6%). We induced focal demyelinating lesions by injecting 0.5 μl of a solution of 1% lysolecithin (LPC, Sigma in 0.9% NaCl solution) into the corpus callosum. To do so, a glass-capillary connected to a 10 μl Hamilton syringe was fixed and oriented through stereotaxic apparatus (coordinates: 1 mm lateral, 1.3 mm rostral to Bregma, 1.7 mm deep to brain surface). Animals were left to recover for a few hours in a warm chamber. […] Mice was perfused at 2% cold paraformaldehyde (thermos fisher) at 7 DPI.
For in-vivo cryosections (14-μm thick) of lesions, immunohistochemistry was performed after 30 mn drying at RT in a moist chamber. For myelin staining, ethanol treatment (100%) was performed for 10 mn at RT. Briefly, sections were permeabilized and blocked in a blocking buffer for 1 h (0.05% Triton X-100/10% normal goat serum/PBS). Then, cryosections were incubated overnight with the following primary antibodies at 4° C.: Mouse anti-APC (CC1 IgG2B; 1:100, calbiochem); Rabbit anti-Olig2 (1:500; Millipore); Mouse anti-Olig1 (IgG1; 1:500; NeuroMab); Rat anti-CD68 (1:500, AbD SEROTEC/BioRad); Rabbit anti-IBA1 (1:500, Wako Fujifilm); Mouse anti-MOOG (mlgG1, 1:20; Hybridoma). Then sections were washed 3 times in 0.05% Triton X-100/PBS and incubated 1 hour at RT with appropriate secondary antibodies conjugated with Alexa Fluor 488, 594 and 647 (1:1000; Molecular Probes or Thermo Fisher) and Dapi (1:5000 from working solution at 5 mg/ml; Life Technologies; D1306). Sections were washed 3 times in 0.05% Triton X-100/PBS and mounted with Fluoromount-G (SouthernBiotech).
We analyzed the lesions at 7 days post-lesion (7 dpl), when newly formed OLs have started to remyelinate the lesion in this model. The lesion area was identified by immunodetection of the high cellular density with DAPI staining, reduction of myelin with myelin oligodendrocyte glycoprotein (MOG), and abundance of microglia/macrophages with Iba1 and Cd68. We determined the effect of the drugs to promote oligodendrogenesis at the lesion site by combinatory immunodetection of Olig2, CC1 and Olig1, allowing to distinguish OPCs (Olig2^high/CC1^−/Olig1^nuclear-cyto cells) and three stages in OL differentiation: iOL1 (Olig2^high/CC1^high/Olig1^− cells), iOL2 (Olig2^high/CC1^high/Olig1^high-cyto cells), and mOL (Olig2^low/CC1^low/Olig1^low cells). […] Given the increase in OL differentiation by the drugs administration, without diminishing the pool of OPCs in the lesion area, we assessed for the proliferative status of OPCs, using Mcm2 and Ki67 proliferative markers, finding that both drugs promote a ˜2-fold increase in the density of proliferative OPCs (FIG. 4D) and in the proportion of proliferative OPCs (FIG. 4E).
To investigate the possible anti-inflammatory and pro-regenerative activity of these drugs, we performed staining for microglia/macrophages (Iba1+ cells), their active phagocytic status (Cd68+ cells), together with myelin (MOG) and cell density (DAPI) to identify the lesion area.

As to `CCCCOc1ccc(C(=O)CCN2CCCCC2)cc1.Cl` [Sm5, Dyclonine hydrochloride], the “EdU+ cell density within the subventricular zone (proliferation)” value in assay [1] (P13, intranasal P11 to P13, sm5 at 5 μg per g, sm11 at 0.5 μg per g, versus hypoxia, FIG. 6A) is given as “no marked additive effects”. Besides, the “proportion of Olig2+ cells labeled with EdU (proliferative OPCs, dorsal SVZ)” value in assay [1] (P13, intranasal P11 to P13, versus hypoxia, FIG. 6B) is recorded as “significant increase”. Moreover, the “myelinating OLs (GSTπ+ cells), GSTπ expression” value in assay [1] (P19, cortex, intranasal P11 to P13, after hypoxia, FIG. 5D) is recorded as “complete recovery”. Further, the “OL differentiation, ratio of Olig2+ cells expressing CC1” value in assay [1] (P19, cortex, intranasal P11 to P13, compared to hypoxic and normoxic groups, FIG. 5C) is “increased OL differentiation beyond the normoxic and sm11 groups”. The “density of oligodendroglial cells (Olig2+ cells) in the cortex” value in assay [1] (P19, intranasal P11 to P13, FIG. 5B) is given as “no major effect”. The “number of oligodendroglial cells in the remyelinating area (Olig2+ cells)” value in assay [2] (sm5 at 5 μg per g, control 942.5±265.7, FIG. 4B) is listed as 1208±281.1 Olig2+ cells per mm^2. Also, the “density of OPCs (Olig2high/CC1−/Olig1nuclear-cyto cells) in the lesion area” value in assay [2] (FIG. 4C) was “did not change”. In assay [2] (FIG. 4F), the “increase of the differentiation ratio (number of OLs per OPC) versus control” value came out at 2 fold. Further, the “pro-regenerative microglia (Arg1+ cells)” value in assay [2] (FIG. 4I) is reported as “corresponding increase”. Besides, the “actively phagocytic microglia/macrophages (Cd68+ cells)” value in assay [2] (control 22.45%, FIG. 4H) is reported as “reduction of their phagocytic population”. The “differentiation ratio (number of OLs per OPC)” value in assay [2] (control 25% (1 OLs for 4 OPCs), FIG. 4F) worked out at 50%. In assay [2] (control 33.64%, FIG. 4G), the “surface occupied by Iba1+ microglia/macrophages in the lesion area” value is given as “trend to reduce”. In addition, in assay [2] (versus control), the “increase of each stage of OL differentiation (iOL1, iOL2 & mOL)” value is recorded as “more moderate effect only significant at the iOL2 stage”. Further, the “increase in the density of proliferative OPCs (Mcm2, Ki67 markers)” value in assay [2] (versus control, FIG. 4D) is about 2 fold. Besides, the “increase in the proportion of proliferative OPCs” value in assay [2] (versus control, FIG. 4E) is about 2 fold.

For the origin of these results see patent US20250195523A1, “ORGANIC MOLECULES FOR TREATING MYELIN PATHOLOGIES” (ICM (INSTITUT DU CERVEAU ET DE LA MOELLE ÉPINIÈRE), priority 2022, published 2025).
